Reference: ChEMBL document CHEMBL2176970, “Discovery and optimization of a series of 3-(3-phenyl-3H-imidazo[4,5-b]pyridin-2-yl)pyridin-2-amines: orally bioavailable, selective, and potent ATP-independent Akt inhibitors” (J Med Chem, 2012)
Active and inactive are the calls of the source. No cut-off for these calls is given here.

Assays:
[1] = target: T1, RAC-alpha serine/threonine-protein kinase (Homo sapiens, UniProt P31749); experiment: Inhibition of Akt1 in human A2780 cells assessed as phosphorylation of Akt at S473 after 2 hrs by Western Blot analysis; assay type: cell-based
T1 sequence (P31749 whole entry): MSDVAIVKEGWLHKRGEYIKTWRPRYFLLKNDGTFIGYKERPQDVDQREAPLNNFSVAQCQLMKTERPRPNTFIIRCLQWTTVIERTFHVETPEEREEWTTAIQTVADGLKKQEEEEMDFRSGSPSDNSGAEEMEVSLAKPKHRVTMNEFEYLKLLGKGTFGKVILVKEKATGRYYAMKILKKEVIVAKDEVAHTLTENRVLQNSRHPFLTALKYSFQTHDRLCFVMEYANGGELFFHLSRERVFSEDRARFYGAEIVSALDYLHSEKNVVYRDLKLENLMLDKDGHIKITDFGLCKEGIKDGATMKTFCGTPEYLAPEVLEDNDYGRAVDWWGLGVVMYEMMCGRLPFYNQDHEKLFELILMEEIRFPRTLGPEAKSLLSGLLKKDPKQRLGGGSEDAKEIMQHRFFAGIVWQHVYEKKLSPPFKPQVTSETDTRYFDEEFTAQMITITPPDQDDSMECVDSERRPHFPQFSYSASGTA

[2] = target: T1, RAC-alpha serine/threonine-protein kinase; experiment: Inhibition of Akt1 in human AN3CA cells assessed as phosphorylation of Akt at S473 after 2 hrs by Western Blot analysis; assay type: cell-based, AN3-CA
[3] = target: T1, RAC-alpha serine/threonine-protein kinase; experiment: Inhibition of Akt 1 in human A2780 cells assessed as phosphorylation of Akt at T308 after 2 hrs by Western Blot analysis; assay type: cell-based
[4] = target: T1, RAC-alpha serine/threonine-protein kinase; experiment: Inhibition of Akt 1 in human AN3CA cells assessed as phosphorylation of Akt at T308 after 2 hrs by Western Blot analysis; assay type: cell-based, AN3-CA
[5] = target: T1, RAC-alpha serine/threonine-protein kinase; experiment: Inhibition of Akt1 in human A2780 cells assessed as phosphorylation PRAS40 at T246 after 2 hrs by Western Blot analysis; assay type: cell-based
[6] = target: T1, RAC-alpha serine/threonine-protein kinase; experiment: Inhibition of Akt1 in human AN3CA cells assessed as phosphorylation PRAS40 at T246 after 2 hrs by Western Blot analysis; assay type: cell-based, AN3-CA
[7] = test system: A2780; experiment: Antiproliferative activity against human A2780 cells after 72 hrs by MTS assay; assay type: functional, cell-based; settings: A2780, 72 h
[8] = test system: AN3-CA; experiment: Antiproliferative activity against human AN3CA cells after 72 hrs by MTS assay; assay type: functional, cell-based
[9] = target: T2, RAC-beta serine/threonine-protein kinase (Homo sapiens, UniProt P31751); experiment: Binding affinity to Akt2 (1 to 481) expressed in Sf9 cells assessed as change in melting temperature at 15 uM
T2 sequence (P31751 whole entry): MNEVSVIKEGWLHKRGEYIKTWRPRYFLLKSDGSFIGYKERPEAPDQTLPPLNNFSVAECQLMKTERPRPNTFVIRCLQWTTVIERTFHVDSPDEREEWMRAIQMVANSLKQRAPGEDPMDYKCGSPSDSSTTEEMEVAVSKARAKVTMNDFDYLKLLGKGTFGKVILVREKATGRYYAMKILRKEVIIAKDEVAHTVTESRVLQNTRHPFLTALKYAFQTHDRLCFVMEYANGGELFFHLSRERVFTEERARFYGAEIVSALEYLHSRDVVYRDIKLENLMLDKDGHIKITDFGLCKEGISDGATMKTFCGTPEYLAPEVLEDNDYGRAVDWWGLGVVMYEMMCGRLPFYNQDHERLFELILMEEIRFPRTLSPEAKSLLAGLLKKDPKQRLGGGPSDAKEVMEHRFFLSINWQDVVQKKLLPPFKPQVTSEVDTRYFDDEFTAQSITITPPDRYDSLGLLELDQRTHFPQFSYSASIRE

[10] = target: T3, RAC-gamma serine/threonine-protein kinase (Homo sapiens, UniProt Q9Y243); experiment: Binding affinity to Akt3 (1 to 479) expressed in Sf9 cells assessed as change in melting temperature at 15 uM
T3 sequence (Q9Y243 whole entry): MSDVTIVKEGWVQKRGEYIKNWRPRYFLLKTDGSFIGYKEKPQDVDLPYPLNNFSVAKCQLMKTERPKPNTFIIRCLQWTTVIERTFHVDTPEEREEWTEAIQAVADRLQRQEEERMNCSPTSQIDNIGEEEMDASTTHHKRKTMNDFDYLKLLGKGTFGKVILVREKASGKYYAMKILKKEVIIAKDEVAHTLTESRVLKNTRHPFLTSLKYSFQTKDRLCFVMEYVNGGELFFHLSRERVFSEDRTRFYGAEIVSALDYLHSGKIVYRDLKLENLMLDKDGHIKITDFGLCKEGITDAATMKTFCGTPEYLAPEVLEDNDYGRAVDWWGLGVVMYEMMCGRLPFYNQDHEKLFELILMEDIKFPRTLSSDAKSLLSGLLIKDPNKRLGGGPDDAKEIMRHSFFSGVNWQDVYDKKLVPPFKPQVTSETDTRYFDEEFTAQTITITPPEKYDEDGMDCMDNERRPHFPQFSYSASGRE

[11] = target: T1, RAC-alpha serine/threonine-protein kinase; experiment: Inhibition of Akt1 (1 to 480) expressed in Sf9 cells using biotin-GRPRTSSFAEG as substrate after 20 mins by Alpha-screen assay
[12] = target: T2, RAC-beta serine/threonine-protein kinase; experiment: Inhibition of Akt2 (1 to 481) expressed in Sf9 cells using biotin-GRPRTSSFAEG as substrate after 20 mins by Alpha-screen assay
[13] = target: T3, RAC-gamma serine/threonine-protein kinase; experiment: Inhibition of Akt3 (1 to 479) expressed in Sf9 cells using biotin-GRPRTSSFAEG as substrate after 20 mins by Alpha-screen assay
[14] = target: T4, Cytochrome P450 1A2 (Homo sapiens, UniProt P05177); experiment: Inhibition of CYP1A2 in human liver microsomes using phenacetin as substrate after 10 mins; assay type: ADME, Microsome
T4 sequence (P05177 whole entry): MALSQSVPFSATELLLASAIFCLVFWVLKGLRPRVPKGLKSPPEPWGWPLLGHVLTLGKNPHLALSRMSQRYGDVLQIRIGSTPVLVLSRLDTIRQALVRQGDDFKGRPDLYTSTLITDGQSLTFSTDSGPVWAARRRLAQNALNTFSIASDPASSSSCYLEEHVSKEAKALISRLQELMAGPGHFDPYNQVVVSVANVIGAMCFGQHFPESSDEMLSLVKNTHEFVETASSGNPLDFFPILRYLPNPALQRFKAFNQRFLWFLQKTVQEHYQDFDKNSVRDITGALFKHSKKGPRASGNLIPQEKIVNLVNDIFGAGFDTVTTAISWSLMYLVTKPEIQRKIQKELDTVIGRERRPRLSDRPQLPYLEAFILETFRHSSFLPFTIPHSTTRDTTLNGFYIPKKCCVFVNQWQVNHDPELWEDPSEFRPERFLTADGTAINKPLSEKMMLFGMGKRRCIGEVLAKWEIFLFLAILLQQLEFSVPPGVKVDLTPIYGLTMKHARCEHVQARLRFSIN

[15] = target: Cytochrome P450 2C19 (Homo sapiens, UniProt P33261); experiment: Inhibition of CYP2C19 in human liver microsomes using S-mephenytoin as substrate after 10 mins; assay type: ADME, Microsome
Cytochrome P450 2C19, sequence (P33261 whole entry): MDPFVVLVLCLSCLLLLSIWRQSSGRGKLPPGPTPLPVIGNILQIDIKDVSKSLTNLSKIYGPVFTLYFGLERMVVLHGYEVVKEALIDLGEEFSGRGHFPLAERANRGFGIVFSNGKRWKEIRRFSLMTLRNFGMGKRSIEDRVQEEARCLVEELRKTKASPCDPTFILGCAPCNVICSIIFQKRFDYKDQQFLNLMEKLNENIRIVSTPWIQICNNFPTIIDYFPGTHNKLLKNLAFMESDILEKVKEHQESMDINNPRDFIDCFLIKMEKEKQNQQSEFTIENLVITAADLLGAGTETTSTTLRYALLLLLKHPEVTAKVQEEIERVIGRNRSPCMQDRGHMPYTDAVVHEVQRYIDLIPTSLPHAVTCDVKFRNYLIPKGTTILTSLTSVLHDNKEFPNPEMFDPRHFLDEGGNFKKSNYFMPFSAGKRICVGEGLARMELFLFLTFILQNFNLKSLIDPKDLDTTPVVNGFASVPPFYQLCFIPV

[16] = target: T5, Cytochrome P450 2C8 (Homo sapiens, UniProt P10632); experiment: Inhibition of CYP2C8 in human liver microsomes using paclitaxel as substrate after 10 mins; assay type: ADME, Microsome
T5 sequence (P10632 whole entry): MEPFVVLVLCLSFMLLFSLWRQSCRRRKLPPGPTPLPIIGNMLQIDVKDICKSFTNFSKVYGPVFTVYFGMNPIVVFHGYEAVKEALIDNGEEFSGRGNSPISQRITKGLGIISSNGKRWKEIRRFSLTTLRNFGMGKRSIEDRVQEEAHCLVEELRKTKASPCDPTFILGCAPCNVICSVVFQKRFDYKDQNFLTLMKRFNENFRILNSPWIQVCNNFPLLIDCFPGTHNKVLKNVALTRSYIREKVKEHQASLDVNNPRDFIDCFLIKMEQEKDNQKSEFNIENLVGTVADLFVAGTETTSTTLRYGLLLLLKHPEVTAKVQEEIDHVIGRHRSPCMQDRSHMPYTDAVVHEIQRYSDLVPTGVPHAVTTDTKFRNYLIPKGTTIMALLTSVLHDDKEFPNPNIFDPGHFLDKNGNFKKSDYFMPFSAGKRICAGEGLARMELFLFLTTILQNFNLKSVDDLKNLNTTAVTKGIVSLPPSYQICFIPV

[17] = target: Cytochrome P450 2C9 (Homo sapiens, UniProt P11712); experiment: Inhibition of CYP2C9 in human liver microsomes using tolbutamide as substrate after 10 mins; assay type: ADME, Microsome
Cytochrome P450 2C9, sequence (P11712 whole entry): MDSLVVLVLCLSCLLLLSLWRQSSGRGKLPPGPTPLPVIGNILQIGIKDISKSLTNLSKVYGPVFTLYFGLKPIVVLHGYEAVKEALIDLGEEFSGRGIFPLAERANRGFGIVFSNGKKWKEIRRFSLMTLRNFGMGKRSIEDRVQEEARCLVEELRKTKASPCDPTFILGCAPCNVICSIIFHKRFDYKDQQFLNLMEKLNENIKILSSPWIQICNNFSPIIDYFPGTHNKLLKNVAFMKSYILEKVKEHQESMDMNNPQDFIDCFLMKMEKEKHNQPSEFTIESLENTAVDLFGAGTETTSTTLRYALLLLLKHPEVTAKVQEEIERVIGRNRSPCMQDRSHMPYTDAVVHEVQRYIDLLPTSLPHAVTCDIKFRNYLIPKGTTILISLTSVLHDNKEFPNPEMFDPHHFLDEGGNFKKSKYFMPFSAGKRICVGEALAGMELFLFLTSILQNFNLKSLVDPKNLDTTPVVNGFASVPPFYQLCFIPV

[18] = target: Cytochrome P450 2D6 (Homo sapiens, UniProt P10635); experiment: Inhibition of CYP2D6 in human liver microsomes using bufuralol as substrate after 10 mins; assay type: ADME, Microsome
Cytochrome P450 2D6, sequence (P10635 whole entry): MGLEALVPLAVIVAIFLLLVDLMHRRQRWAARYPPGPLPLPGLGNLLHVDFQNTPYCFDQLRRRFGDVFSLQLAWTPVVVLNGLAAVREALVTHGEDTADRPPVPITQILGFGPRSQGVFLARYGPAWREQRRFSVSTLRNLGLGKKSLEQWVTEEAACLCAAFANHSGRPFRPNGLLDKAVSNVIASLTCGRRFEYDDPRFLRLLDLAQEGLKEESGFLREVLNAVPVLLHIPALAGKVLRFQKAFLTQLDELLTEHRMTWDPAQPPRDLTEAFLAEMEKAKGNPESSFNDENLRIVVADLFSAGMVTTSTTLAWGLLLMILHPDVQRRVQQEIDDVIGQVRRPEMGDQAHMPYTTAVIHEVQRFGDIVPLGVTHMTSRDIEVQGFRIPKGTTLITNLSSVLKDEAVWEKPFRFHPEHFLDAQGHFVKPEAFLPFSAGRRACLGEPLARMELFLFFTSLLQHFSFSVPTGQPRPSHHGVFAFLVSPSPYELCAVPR

[19] = target: Cytochrome P450 3A4 (Homo sapiens, UniProt P08684); experiment: Inhibition of CYP3A4 in human liver microsomes using midazolam as substrate after 10 mins; assay type: ADME, Microsome
Cytochrome P450 3A4, sequence (P08684 whole entry): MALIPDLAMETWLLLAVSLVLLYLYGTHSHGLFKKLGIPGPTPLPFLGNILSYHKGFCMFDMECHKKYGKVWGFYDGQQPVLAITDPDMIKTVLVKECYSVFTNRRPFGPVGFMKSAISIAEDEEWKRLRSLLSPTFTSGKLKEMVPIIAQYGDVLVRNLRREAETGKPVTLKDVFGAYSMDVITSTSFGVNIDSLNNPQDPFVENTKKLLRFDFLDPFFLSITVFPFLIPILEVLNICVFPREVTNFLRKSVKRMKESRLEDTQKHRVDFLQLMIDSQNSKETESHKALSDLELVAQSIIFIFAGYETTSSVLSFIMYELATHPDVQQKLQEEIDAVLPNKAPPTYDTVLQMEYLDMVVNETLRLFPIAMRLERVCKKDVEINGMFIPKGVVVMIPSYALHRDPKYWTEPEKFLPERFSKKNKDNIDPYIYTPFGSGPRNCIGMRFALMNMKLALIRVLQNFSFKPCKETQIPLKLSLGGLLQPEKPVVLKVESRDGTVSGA

[20] = Half life in human liver microsomes at 1 uM by LC/MS/MS; assay type: ADME, Microsome
[21] = Half life in male CD1 mouse liver microsomes at 1 uM by LC/MS/MS; assay type: ADME, Microsome
[22] = Half life in female CD1 mouse liver microsomes at 1 uM by LC/MS/MS; assay type: ADME, Microsome
[23] = Oral bioavailability in NCr mouse at 100 mg/kg; assay type: ADME, organism-based; settings: in vivo
[24] = test system: Mus musculus; experiment: Inhibition of Akt in human AN3CA cells xenografted NCr mouse assessed as reduction of Akt phosphorylation at S473 in tumor at 100 mg/kg, po after 2 hrs; assay type: functional; settings: AN3-CA
[25] = test system: Mus musculus; experiment: Inhibition of Akt in human AN3CA cells xenografted NCr mouse assessed as reduction of Akt phosphorylation at T308 in tumor at 100 mg/kg, po after 2 hrs; assay type: functional; settings: AN3-CA
[26] = test system: Mus musculus; experiment: Inhibition of Akt in human AN3CA cells xenografted NCr mouse assessed as reduction of p70S6 phosphorylation at T389 in tumor at 100 mg/kg, po after 2 hrs; assay type: functional; settings: AN3-CA
[27] = Plasma concentration in CD1 mouse at 100 mg/kg, po after 2 hrs by LC/MS/MS analysis; assay type: ADME, organism-based; set-up: dose 100 mg/kg, route oral
[28] = Drug level in human AN3CA cells xenografted NCr mouse tumor at 100 mg/kg, po after 2 hrs; assay type: ADME, organism-based, Neoplasm, AN3-CA; set-up: dose 100 mg/kg, route oral; settings: read-out: Drug uptake
[29] = target: T1, RAC-alpha serine/threonine-protein kinase; settings: Sf9
[30] = test system: Mus musculus; experiment: Inhibition of Akt in human AN3CA cells xenografted NCr mouse assessed as reduction of Akt phosphorylation at S473 in tumor at 250 mg/kg, po after 2 hrs; assay type: functional; settings: AN3-CA
[31] = test system: Mus musculus; experiment: Inhibition of Akt in human AN3CA cells xenografted NCr mouse assessed as reduction of Akt phosphorylation at T308 in tumor at 250 mg/kg, po after 2 hrs; assay type: functional; settings: AN3-CA
[32] = test system: Mus musculus; experiment: Inhibition of Akt in human AN3CA cells xenografted NCr mouse assessed as reduction of p70S6 phosphorylation at T389 in tumor at 250 mg/kg, po after 2 hrs; assay type: functional; settings: AN3-CA
[33] = test system: Mus musculus; experiment: Inhibition of Akt in human AN3CA cells xenografted NCr mouse assessed as reduction of Akt phosphorylation at S473 in tumor at 250 mg/kg, po after 4 hrs; assay type: functional; settings: AN3-CA
[34] = test system: Mus musculus; experiment: Inhibition of Akt in human AN3CA cells xenografted NCr mouse assessed as reduction of Akt phosphorylation at T308 in tumor at 250 mg/kg, po after 4 hrs; assay type: functional; settings: AN3-CA
[35] = test system: Mus musculus; experiment: Inhibition of Akt in human AN3CA cells xenografted NCr mouse assessed as reduction of p70S6 phosphorylation at T389 in tumor at 250 mg/kg, po after 4 hrs; assay type: functional; settings: AN3-CA
[36] = Plasma concentration in CD1 mouse at 250 mg/kg, po after 2 hrs by LC/MS/MS analysis; assay type: ADME, organism-based; set-up: dose 250 mg/kg, route oral
[37] = Plasma concentration in CD1 mouse at 250 mg/kg, po after 4 hrs by LC/MS/MS analysis; assay type: ADME, organism-based; set-up: dose 250 mg/kg, route oral
[38] = Drug level in human AN3CA cells xenografted NCr mouse tumor at 250 mg/kg, po after 2 hrs; assay type: ADME, organism-based, Neoplasm, AN3-CA; set-up: dose 250 mg/kg, route oral; settings: read-out: Drug uptake
[39] = Drug level in human AN3CA cells xenografted NCr mouse tumor at 250 mg/kg, po after 4 hrs; assay type: ADME, organism-based, Neoplasm, AN3-CA; set-up: dose 250 mg/kg, route oral; settings: read-out: Drug uptake
[40] = target: T1, RAC-alpha serine/threonine-protein kinase; experiment: Inhibition of Akt1 (1 to 480) expressed in Sf9 cells in presence of A674563
[41] = target: T1, RAC-alpha serine/threonine-protein kinase; experiment: Binding affinity to Akt1 (1 to 480) expressed in Sf9 cells by SPR analysis

Compound	IC50 [1] [nM]	IC50 [2] [nM]	IC50 [3] [nM]	IC50 [4] [nM]	IC50 [5] [nM]	IC50 [6] [nM]	IC50 [7] [nM]	IC50 [8] [nM]	ΔTm [9] [°C]	ΔTm [10] [°C]	IC50 [12] [nM]	IC50 [13] [nM]	IC50 [14] [nM]	IC50 [15] [nM]	IC50 [16] [nM]	IC50 [17] [nM]	IC50 [18] [nM]	IC50 [19] [nM]	half-life at 1 µM [20] [min]	half-life at 1 µM [21] [min]	further results
Nc1ncccc1-c1nc2cc(-c3cccnc3)cnc2n1-c1ccc(CNC(=O)c2ccccc2)cc1	100	80	62	91	950	1500	> 100000	> 100000	4.8	1.6	30	660	> 10000	> 10000	> 10000	> 10000	> 10000	> 10000	> 30	> 60	IC50 [11]: 8 nM; half-life at 1 µM [22]: > 60 min; bioavailability [23]: 46%; inhibition in vivo at 100 mg/kg [24]: 82%; inhibition in vivo at 100 mg/kg [25]: 25%; inhibition in vivo at 100 mg/kg [26]: 76%; concentration at 2 h [27]: 14100 nM; concentration at 2 h [28]: 8400 nM; ΔTm [29]: 9.2 °C
CC(=O)Nc1cccc(-c2ccc3nc(-c4cccnc4N)n(-c4ccc(CNC(=O)c5cccc(F)c5)cc4)c3n2)c1	27	44	32	45	250	220	2200	2000	7.7	2.9	18	170	> 10000	1000	1000	1000	> 10000	> 10000	> 30	> 30	half-life at 1 µM [22]: > 30 min; inhibition in vivo at 250 mg/kg [30]: 62%; inhibition in vivo at 250 mg/kg [31]: 57%; inhibition in vivo at 250 mg/kg [32]: 90%; inhibition in vivo at 250 mg/kg [33]: 51%; inhibition in vivo at 250 mg/kg [34]: 67%; inhibition in vivo at 250 mg/kg [35]: 86%; concentration at 2 h [36]: 2000 nM; concentration at 4 h [37]: 1200 nM; concentration at 2 h [38]: 1200 nM; concentration at 4 h [39]: 600 nM; inhibition [40]: Active; Activity [41]: Active; ΔTm [29]: 13 °C
